Results as given in patent US8629127B2, “Compositions and methods of treatment for inflammatory diseases” (The Board of Regents of the University of Oklahoma, priority 2004, dated 2014).

Legend:
[1] = system: Myeloperoxidase activity; assay: Myeloperoxidase activity in colon tissue, TNBS colitis; assay type: in vivo, rat; settings: 11 days after TNBS; 8-day treatment
Protocol: Following a 24 hr fast, rats were lightly anesthetized using isoflurane followed by insertion of a polyethylene catheter into the anus. The tip of the catheter was advanced 8 cm proximal from the anus and a single dose of TNBS (Sigma, St. Louis, Mo.), dissolved in 50% ethanol, was injected through the cannula (15 mg dissolved in a 0.6 ml volume of 50% ethanol) to induce colitis. Following the administration of TNBS the animals were maintained in a head-down position for approximately 60 seconds to prevent leakage of the infusate. After 72 hrs, rats dosed initially with TNBS were randomly assigned to one of four treatment groups to receive daily intracolonic therapy in a manner similar to that used for TNBS administration. […] An additional group of rats (Group E) served as control and received saline per rectum on day 0 and at subsequent intervals that corresponded to treatment protocols. Rats were treated for either 5 or 8 days and then sacrificed by cervical dislocation. FIG. 1 illustrates the design of these experiments. Myeloperoxidase activity was used as an indirect measure of the severity of colonic inflammation by PMNs. […] C. The tissues were then removed from storage at −80° C. and allowed to thaw on ice. […] The absorbance changes were read at 450 nm and recorded. Results were expressed as ng/ml/g of tissue.

[2] = system: TNBS-induced colitis; assay: Histological assessment of TNBS-induced colitis; assay type: in vivo, rat; settings: for Cumulative (aggregate) microscopic colitis injury score: 8 days after TNBS, 5-day treatment, scale 0-15; for Decrease in aggregate microscopic injury score: 11 days after TNBS, 8-day treatment, vs TNBS alone
Description: Male Sprague Dawley rats (200-250 grams) were housed in cages containing contact bedding. Rats were deprived of food for 24 hrs prior to the induction of colitis, but were allowed free access to water throughout the experiment. Institutional approval for experimental protocols was provided by the research and animal care committees of the research services at the Oklahoma City Veterans Administration Medical Center. Following a 24 hr fast, rats were lightly anesthetized using isoflurane followed by insertion of a polyethylene catheter into the anus. The tip of the catheter was advanced 8 cm proximal from the anus and a single dose of TNBS (Sigma, St. Louis, Mo.), dissolved in 50% ethanol, was injected through the cannula (15 mg dissolved in a 0.6 ml volume of 50% ethanol) to induce colitis. Following the administration of TNBS the animals were maintained in a head-down position for approximately 60 seconds to prevent leakage of the infusate. After 72 hrs, rats dosed initially with TNBS were randomly assigned to one of four treatment groups to receive daily intracolonic therapy in a manner similar to that used for TNBS administration. […] An additional group of rats (Group E) served as control and received saline per rectum on day 0 and at subsequent intervals that corresponded to treatment protocols. Rats were treated for either 5 or 8 days and then sacrificed by cervical dislocation. FIG. 1 illustrates the design of these experiments. Colonic tissue samples taken from the initial segment were immersed in 10% phosphate buffered formalin and subsequently embedded in paraffin. Sections of 3 micron thickness were cut and stained with hematoxylin and eosin. The slides were then evaluated by a pathologist for epithelial damage, architectural changes, mononuclear infiltration, polymorphonuclear leukocyte (PMN) infiltration and ulceration. The individual microscopic features of colitis were graded according to criteria noted in Table 2. In addition to scoring individual features of colitis, an aggregate score of colitis was tabulated by adding together individual scores, thus, providing a global assessment of colitis. [table]

[3] = system: DSS-induced colitis; assay: Histological assessment of DSS-induced colitis; assay type: in vivo, rat; settings: DSS colitis (4% DSS, 4 days); 4-day intracolonic treatment; maximal score 12
Description: Male Sprague Dawley rats (200-250 grams) were housed in cages containing contact bedding. Rats were deprived of food for 24 hrs prior to the induction of colitis, but were allowed free access to water throughout the experiment. Institutional approval for experimental protocols was provided by the research and animal care committees of the research services at the Oklahoma City Veterans Administration Medical Center. Colitis was induced by oral administration of a 4% solution of DSS (dextran sulfate sodium) in drinking water for 4 days. […] Animals received treatment for 4 days. Macroscopic indices of colonic injury were scored and tabulated. Histological features that were examined included epithelial damage and mucosal ulceration. Additional measures included determination of serum C-reactive protein (CRP) levels and cytokine gene expression in colonic tissues performed by ribonuclease protection assay (RPA). Colonic tissue samples taken from the initial segment were immersed in 10% phosphate buffered formalin and subsequently embedded in paraffin. Sections of 3 micron thickness were cut and stained with hematoxylin and eosin. The slides were then evaluated by a pathologist for epithelial damage, architectural changes, mononuclear infiltration, polymorphonuclear leukocyte (PMN) infiltration and ulceration. […]

[4] = system: IL-6; assay: Cytokine gene expression in rat colon (RPA), TNBS colitis; assay type: in vivo; settings: 11 days after TNBS, 8-day treatment
Protocol: (§1) Following a 24 hr fast, rats were lightly anesthetized using isoflurane followed by insertion of a polyethylene catheter into the anus. The tip of the catheter was advanced 8 cm proximal from the anus and a single dose of TNBS (Sigma, St. Louis, Mo.), dissolved in 50% ethanol, was injected through the cannula (15 mg dissolved in a 0.6 ml volume of 50% ethanol) to induce colitis. Following the administration of TNBS the animals were maintained in a head-down position for approximately 60 seconds to prevent leakage of the infusate. After 72 hrs, rats dosed initially with TNBS were randomly assigned to one of four treatment groups to receive daily intracolonic therapy in a manner similar to that used for TNBS administration. […] An additional group of rats (Group E) served as control and received saline per rectum on day 0 and at subsequent intervals that corresponded to treatment protocols. Rats were treated for either 5 or 8 days and then sacrificed by cervical dislocation. FIG. 1 illustrates the design of these experiments. Following the manufacturer's protocol, 1 ml of TRI Reagent (Sigma, St. Louis, Mo.) is used per 100 mg of tissue. The frozen tissue is placed into the TRI Reagent and immediately homogenized using a tissue macerator. The homogenates are transferred to microcentrifuge tubes and 0.2 ml of chloroform is added per ml of TRI Reagent used. The samples are shaken thoroughly and allowed to sit at room temp for 3 min. Samples were then centrifuged at 12000×g for 15 min at […]. After centrifugation, the upper aqueous phase was transferred to a new tube and […] of 2-propanol is added to precipitate the RNA. After sitting at room temp for 10 min. the samples are centrifuged at 12000×g for 15 min. The supernatants are discarded and the pellets are washed in 70% ethanol followed by centrifugation at 12000×g for 5 min. The ethanol was removed and the pellets are dissolved in 50 μl of DEPC treated water per sample. Quantitation is performed by spectrophotometry at 260 nm and 280 nm. RPA analysis was performed with RiboQuant™ multi-probe RNase protection assay system (BD Biosciences-Pharmingen, San Diego, Calif.). To 20 μg of total RNA in 8 μl of hybridization buffer and 2 μl of ^32P-labeled in vitro transcribed RNA probes were added. The probes were transcribed from the multiprobe template set rCK-1 which as a panel of probes against IL-1a, IL-1b, IL-3, IL-5, IL-10, IL-2, TNFα, TNBβ, GAPDH genes. Probes were prepared according to the manufactures protocol. The RNA samples containing labeled probes were incubated briefly at 90° C., slowly cooled to 56° C. and hybridized overnight at that temperature. The samples were then slowly cooled to 30° C. Thereafter, a mixture of RNases A and T1 was added to digest single-stranded RNA leaving the double-stranded RNA formed by the probes annealing to their cognate mRNAs intact. Following proteinase K digestion and phenol-chloroform extraction, the undigested double-stranded RNA was precipitated with ammonium acetate and ethanol. […] The ethanol was removed and the pellets were dissolved in 5 μl of formamide loading dye. The double-stranded RNAs were resolved on a 5% polyacrylamide/urea gel run in TBE buffer. After electrophoresis, the gel was dried at 80° C. under vacuum and then exposed to a PhosphorImager screen overnight. Detection and quantitation of the resolved bands on the gel were performed on a Storm PhosphorImager™ system (Amersham Biosciences, Piscataway, N.J.).

[5] = system: IL-4; assay: as above; assay type: in vivo; settings: 11 days after TNBS, 8-day treatment
Protocol: as §1

[6] = system: IL-1A; assay: as above; assay type: in vivo; settings: 11 days after TNBS, 8-day treatment
Protocol: as §1

[7] = system: IL-1B; assay: as above; assay type: in vivo; settings: 11 days after TNBS, 8-day treatment
Protocol: as §1

[8] = system: TNF-α; assay: as above; assay type: in vivo; settings: 11 days after TNBS, 8-day treatment
Protocol: as §1

[9] = system: TNBS-induced colitis; assay: Macroscopic assessment of TNBS-induced colitis; assay type: in vivo, rat; settings: scale 0-6
Description: Male Sprague Dawley rats (200-250 grams) were housed in cages containing contact bedding. Rats were deprived of food for 24 hrs prior to the induction of colitis, but were allowed free access to water throughout the experiment. Institutional approval for experimental protocols was provided by the research and animal care committees of the research services at the Oklahoma City Veterans Administration Medical Center.
Following a 24 hr fast, rats were lightly anesthetized using isoflurane followed by insertion of a polyethylene catheter into the anus. The tip of the catheter was advanced 8 cm proximal from the anus and a single dose of TNBS (Sigma, St. Louis, Mo.), dissolved in 50% ethanol, was injected through the cannula (15 mg dissolved in a 0.6 ml volume of 50% ethanol) to induce colitis. Following the administration of TNBS the animals were maintained in a head-down position for approximately 60 seconds to prevent leakage of the infusate. After 72 hrs, rats dosed initially with TNBS were randomly assigned to one of four treatment groups to receive daily intracolonic therapy in a manner similar to that used for TNBS administration. […] An additional group of rats (Group E) served as control and received saline per rectum on day 0 and at subsequent intervals that corresponded to treatment protocols. Rats were treated for either 5 or 8 days and then sacrificed by cervical dislocation. FIG. 1 illustrates the design of these experiments.
Upon sacrifice, the distal 8 cm of the colon was removed, opened by a longitudinal incision and rinsed with phosphate buffered saline to remove fecal material. Macroscopic assessment of colitis was carried out by an independent observer who was unaware of the treatment groups. Inflammation was present if the mucosa was erythematous. Ulceration of the mucosa was defined as a distinct break or interruption of the mucosa. Once macroscopic damage was assessed full thickness colonic tissue samples were taken from the inflamed areas and either processed for histology or snap frozen in liquid nitrogen for subsequent cytokine measurement and determination of myeloperoxidase (MPO) activity.

[10] = patients with inflammatory bowel disease; cited from earlier work
[11] = 8 days after TNBS, 5-day intracolonic treatment, 5-ASA 100 mg/kg, NAC 40 mM
[12] = 11 days after TNBS, 8-day intracolonic treatment

Structure (SMILES) | Reduction of MPO activity below TNBS values [1] | Cumulative (aggregate) microscopic colitis injury score [2] | Decrease in aggregate microscopic injury score [2] | Aggregate microscopic injury score [3] | IL-6 gene expression, Mean ± SEM [4] | IL-4 gene expression, Mean ± SEM [5] | IL-1A gene expression, Mean ± SEM [6] | IL-1B gene expression, Mean ± SEM [7] | TNF-α gene expression, Mean ± SEM [8] | Macroscopic injury score [9, 11] | Macroscopic injury score [9, 12] | Patients who cannot tolerate this medication (side effects) [10]
CC(=O)N[C@@H](CS)C(=O)O [NAC, N-acetylcysteine] | 40% | 9.0±1.8 | 53% | 4.0±1.1 | 0.76 ± 0.14 Relative O.D units | 1.20 ± 0.26 Relative O.D units | 1.28 ± 0.16 Relative O.D units | 11.88 ± 1.0 Relative O.D units | 1.04 ± 0.017 Relative O.D units | 4.1±0.6 | 1.2±0.2 | 
O=C(O)c1cc(/N=N/c2ccc(S(=O)(=O)Nc3ccccn3)cc2)ccc1O [sulfasalazine] |  |  |  |  |  |  |  |  |  |  |  | up to one third
Nc1ccc(O)c(C(=O)O)c1 [5-ASA, 5-aminosalicylic acid] | 32% | 9.0±0.9 | 46% | 4.1±0.9 | 0.79 ± 0.22 Relative O.D units | 1.40 ± 0.25 Relative O.D units | 1.33 ± 0.18 Relative O.D units | 11.49 ± 2.54 Relative O.D units | 1.25 ± 0.12 Relative O.D units | 3.0±0.7 | 1.8±0.2 | 
